Laboratory results published in patent US8802128B2, “Steroid-containing sustained release intraocular implants and related methods” (Allergan, Inc., priority 2006, dated 2014).

Assays:
[1] = in vivo; cited from earlier work
[2] = Relative water solubility of the steroids; format: physicochemical

| SMILES | eyes with increase in brown pigment in the iris [1] | water solubility relative to beclomethasone dipropionate (times more soluble) [2] |
| --- | --- | --- |
| CC(C)OC(=O)CCC/C=C\C[C@@H]1[C@@H](CC[C@@H](O)CCc2ccccc2)[C@H](O)C[C@@H]1O [latanoprost] | 5-15 % of human eyes |  |
| CC1(C)O[C@@H]2C[C@H]3[C@@H]4CCC5=CC(=O)C=C[C@]5(C)[C@@]4(F)[C@@H](O)C[C@]3(C)[C@]2(C(=O)CO)O1 [triamcinolone acetonide] |  | about 150 times |
